Results reported in article PMC9354705, “Characterization of TR‐107, a novel chemical activator of the human mitochondrial protease ClpP” (Pharmacology Research & Perspectives, 2022).
Several values for one entry are separate records, joined by “and”; a condition that tells them apart may be missing. Equal entries are not always repeated.

Key:
C3(1)‐Tag cells = assay: Cell viability assay of C3Tag cells; assay type: cell-based, murine; settings: Mus musculus; 72 h, Hoechst stain, N = 2
recombinant human ClpP = target: T1, recombinant human ClpP (Homo sapiens, UniProt Q16740); assay: Surface plasmon resonance binding to ClpP; settings: steady state, one‐site Langmuir binding model, 25°C; read-out: Kd (SPR)
T1 construct: made in house
T1 sequence (Q16740 57-277): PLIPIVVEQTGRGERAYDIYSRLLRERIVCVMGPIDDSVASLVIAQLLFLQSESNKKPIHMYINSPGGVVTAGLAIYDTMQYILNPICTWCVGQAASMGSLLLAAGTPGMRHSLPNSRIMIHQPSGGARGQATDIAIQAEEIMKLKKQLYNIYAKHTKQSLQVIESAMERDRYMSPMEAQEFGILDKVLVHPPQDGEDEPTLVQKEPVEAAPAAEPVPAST
Description: For the surface plasmon resonance (SPR) experiments, recombinant human ClpP was purified as previously described.[46] SPR measurements were performed on a Biacore X100 instrument (Cytiva Life Sciences) at 25°C in buffer (25 mM sodium phosphate, pH 7.5, 200 mM KCl, 0.05% Tween‐20, and 0.004% DMSO). ClpP was immobilized onto flowcell two of a CM5 chip (Cytive Life Sciences) using the amine coupling wizard using Biacore X100 Control Software. A pulse of a mixture of NHS and EDC activated the CM5 chip surface. ClpP was diluted to 100 μg/ml in 10 mM sodium acetate, pH 4.5 immediately prior to use and injected over the activated surface for 180 s. The remaining activated sites were blocked with a pulse of ethanolamine. 12 000 RU of ClpP was captured using this procedure. Flowcell 1 was unmodified and served as a reference. For TR‐107 binding to ClpP, a concentration series of TR‐107 in DMSO was diluted into the buffer to achieve 0.004% final DMSO concentration in all samples. Three replicates were injected for each concentration. Data were blank subtracted and analysis was performed in Biacore X100 Evaluation Software (Cytiva Life Sciences). The steady‐state response was calculated 15 s before the end of injection with a window of 15 s. Data were fitted to a one‐site Langmuir binding model.

SMILES: N#Cc1cccc(CN2CCc3ncn(Cc4ccc(Cl)cc4)c(=O)c3C2)c1 [TR‐107]
- IC50 (C3(1)‐Tag cells): 22 nM
- Kd (recombinant human ClpP): ~180 nM and 178 nM
